The structures appear in SMILES notation. Read-outs that look alike come from different tables or passages of the source.

Drawing on patent publication US7045532B2 (Millennium Pharmaceuticals, Inc., priority 1999, dated 2006), this text covers Ki for 17 compounds.

Experiment [1] has as its target ACE-2 (Rattus norvegicus, UniProt Q5EGZ1). Put plainly: ACE-2 Competitive Substrate Assay, rat ACE-2. It counts as biochemical. As to conditions: Ki class, compounds tested in 5% DMSO.
In a further experiment the target is T1, Carboxypeptidase A (Bos taurus, UniProt P00730).
T1 sequence (P00730 111-419): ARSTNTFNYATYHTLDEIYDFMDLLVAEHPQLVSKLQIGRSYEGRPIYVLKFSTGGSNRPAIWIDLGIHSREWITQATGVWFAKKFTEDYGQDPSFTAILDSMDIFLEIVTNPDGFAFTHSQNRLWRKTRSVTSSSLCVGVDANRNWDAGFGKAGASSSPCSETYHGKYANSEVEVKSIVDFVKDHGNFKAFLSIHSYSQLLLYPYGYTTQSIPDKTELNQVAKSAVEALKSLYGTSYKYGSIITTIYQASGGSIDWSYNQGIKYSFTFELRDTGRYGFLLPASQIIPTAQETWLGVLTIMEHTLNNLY
Description: Carboxypeptidase A activity assay. Type of experiment: biochemical. As to conditions: Ki class, compounds tested in 5% DMSO. The gist of the method:
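Bovine carboxypeptidase A activity followed at 328 nm in 5% DMSO, reaction stopped with EDTA. Activity measured at 12 compound concentrations. Ki derived from apparent Ki as Ki=Kiapp/(1+[S]/Km).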

The target of the next experiment is T2, ACE (Sigma, A2580) (Sus scrofa, UniProt F1RRW5).
T2 construct: ACE from porcine kidney; purchased Sigma A2580; host or cells: porcine kidney
T2 sequence (F1RRW5 34-1309): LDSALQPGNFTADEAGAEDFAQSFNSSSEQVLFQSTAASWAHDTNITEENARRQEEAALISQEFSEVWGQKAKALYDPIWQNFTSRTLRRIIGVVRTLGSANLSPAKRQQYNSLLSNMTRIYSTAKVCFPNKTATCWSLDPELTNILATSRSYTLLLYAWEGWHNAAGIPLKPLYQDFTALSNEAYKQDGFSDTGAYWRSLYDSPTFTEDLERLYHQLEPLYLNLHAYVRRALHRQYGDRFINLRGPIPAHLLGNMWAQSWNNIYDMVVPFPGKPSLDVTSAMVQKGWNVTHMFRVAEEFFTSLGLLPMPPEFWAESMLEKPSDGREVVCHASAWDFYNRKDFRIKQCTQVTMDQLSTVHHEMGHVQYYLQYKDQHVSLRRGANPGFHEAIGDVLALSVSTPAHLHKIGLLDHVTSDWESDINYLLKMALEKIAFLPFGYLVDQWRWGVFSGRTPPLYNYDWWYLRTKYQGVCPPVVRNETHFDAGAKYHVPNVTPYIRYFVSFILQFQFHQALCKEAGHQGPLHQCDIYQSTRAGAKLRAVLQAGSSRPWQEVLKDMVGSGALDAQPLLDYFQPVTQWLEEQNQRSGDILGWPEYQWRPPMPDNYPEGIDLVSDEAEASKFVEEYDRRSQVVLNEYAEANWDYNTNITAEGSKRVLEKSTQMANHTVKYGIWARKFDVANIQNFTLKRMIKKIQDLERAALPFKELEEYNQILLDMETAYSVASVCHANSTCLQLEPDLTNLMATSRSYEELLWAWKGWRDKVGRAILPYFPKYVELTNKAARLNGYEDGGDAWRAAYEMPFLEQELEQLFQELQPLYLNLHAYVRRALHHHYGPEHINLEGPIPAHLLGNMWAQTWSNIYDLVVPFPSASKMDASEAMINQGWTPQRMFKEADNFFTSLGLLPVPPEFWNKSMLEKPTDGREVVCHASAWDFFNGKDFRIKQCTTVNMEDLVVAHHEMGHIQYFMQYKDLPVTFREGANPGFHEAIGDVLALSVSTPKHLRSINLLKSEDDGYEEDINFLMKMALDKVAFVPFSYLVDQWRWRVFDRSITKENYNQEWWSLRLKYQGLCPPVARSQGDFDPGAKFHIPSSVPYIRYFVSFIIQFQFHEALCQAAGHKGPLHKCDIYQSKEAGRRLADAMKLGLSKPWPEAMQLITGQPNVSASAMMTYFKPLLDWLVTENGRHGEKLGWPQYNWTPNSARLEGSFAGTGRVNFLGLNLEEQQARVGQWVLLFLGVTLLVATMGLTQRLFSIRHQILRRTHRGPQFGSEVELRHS
Put plainly: ACE enzymatic activity assay. Type of experiment: biochemical, porcine. As to conditions: Ki class, compounds tested in 5% DMSO. The essentials: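 ACE (1 nM final) in 50 mM HEPES, 300 mM NaCl, 0.01% Brij-35, pH 7.5, with compound in 5% DMSO at 12 concentrations, 25 °C. Substrate cleavage run ~30 min, stopped with EDTA; fluorescence read at excitation 320 nm, emission 405 nm.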

For experiment [2], the target named is T3, ACE-2 (Homo sapiens, UniProt Q9BYF1).
T3 construct: a stop codon inserted after the serine immediately preceding the transmembrane domain; made in house; host or cells: CHO K1 cells (transient transfection, purified from conditioned medium)
T3 sequence (Q9BYF1 18-740 limits assumed): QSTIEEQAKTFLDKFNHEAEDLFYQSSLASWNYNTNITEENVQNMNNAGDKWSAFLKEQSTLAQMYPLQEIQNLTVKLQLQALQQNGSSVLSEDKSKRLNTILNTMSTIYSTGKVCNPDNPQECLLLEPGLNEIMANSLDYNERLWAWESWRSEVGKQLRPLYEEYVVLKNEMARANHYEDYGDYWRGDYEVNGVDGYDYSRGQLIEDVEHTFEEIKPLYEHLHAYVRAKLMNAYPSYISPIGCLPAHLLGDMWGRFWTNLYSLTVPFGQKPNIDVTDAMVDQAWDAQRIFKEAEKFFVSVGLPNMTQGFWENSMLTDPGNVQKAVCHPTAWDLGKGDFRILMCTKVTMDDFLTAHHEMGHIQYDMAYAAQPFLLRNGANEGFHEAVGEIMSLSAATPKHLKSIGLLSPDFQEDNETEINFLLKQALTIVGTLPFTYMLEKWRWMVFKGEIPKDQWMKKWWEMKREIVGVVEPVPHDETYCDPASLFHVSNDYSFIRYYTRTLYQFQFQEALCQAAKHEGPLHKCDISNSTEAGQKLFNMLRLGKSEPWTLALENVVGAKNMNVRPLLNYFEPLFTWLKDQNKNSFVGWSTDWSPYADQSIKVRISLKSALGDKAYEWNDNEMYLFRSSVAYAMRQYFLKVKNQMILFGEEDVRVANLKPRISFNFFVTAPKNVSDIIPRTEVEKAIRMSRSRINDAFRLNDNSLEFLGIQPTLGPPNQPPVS
Description: ACE-2 Competitive Substrate Assay (ACS Assay). Type of experiment: biochemical.

Where [3] appears, read: Ki class, compounds tested in 5% DMSO, 12 compound concentrations, Ki=Kiapp/(1+[S]/Km), read-out: Human ACE-2 Activity.
Setting [4] is: Table 3, very good ACE-2 inhibiting compounds, species not given, read-out: ACE-2 Activity, Ki.
Where [5] appears, read: Ki class, compounds tested in 5% DMSO, 12 concentrations, read-out: Human ACE-2 Activity.

Sequence of ACE-2 (Rattus norvegicus, UniProt Q5EGZ1) (Q5EGZ1 18-805): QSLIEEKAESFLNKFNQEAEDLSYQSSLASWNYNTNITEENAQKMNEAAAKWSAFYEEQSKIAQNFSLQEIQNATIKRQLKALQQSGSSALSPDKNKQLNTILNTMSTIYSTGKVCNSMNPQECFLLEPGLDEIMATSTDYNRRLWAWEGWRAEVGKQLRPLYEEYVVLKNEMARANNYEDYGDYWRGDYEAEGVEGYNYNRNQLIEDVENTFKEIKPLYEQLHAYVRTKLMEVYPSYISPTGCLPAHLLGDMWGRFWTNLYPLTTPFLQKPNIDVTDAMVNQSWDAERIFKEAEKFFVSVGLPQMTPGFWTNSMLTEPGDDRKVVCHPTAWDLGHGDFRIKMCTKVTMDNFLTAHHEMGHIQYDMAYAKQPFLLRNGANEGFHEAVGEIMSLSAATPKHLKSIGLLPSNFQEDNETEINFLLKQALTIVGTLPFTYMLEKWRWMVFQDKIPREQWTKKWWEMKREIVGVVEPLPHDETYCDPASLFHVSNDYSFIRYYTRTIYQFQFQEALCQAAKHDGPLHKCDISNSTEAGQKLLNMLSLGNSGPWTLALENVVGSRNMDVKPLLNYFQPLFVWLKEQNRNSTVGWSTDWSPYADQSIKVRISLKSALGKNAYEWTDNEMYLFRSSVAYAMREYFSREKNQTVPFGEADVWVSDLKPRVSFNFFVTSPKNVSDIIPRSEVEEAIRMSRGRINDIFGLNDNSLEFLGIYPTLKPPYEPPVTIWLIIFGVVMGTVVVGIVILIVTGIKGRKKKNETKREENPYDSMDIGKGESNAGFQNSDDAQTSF

For the compound `CC(C)CC(N[C@@H](Cc1cncn1Cc1ccc(Cl)c(Cl)c1)C(=O)O)C(=O)O` (single isomer, unassigned) [GW], the Ki on ACE-2 [1] (12 compound concentrations) is < 100 nM; at Carboxypeptidase A (12 compound concentrations), 10 to 50 µM; on ACE (Sigma, A2580) (12 compound concentrations), 10 to 50 µM; at ACE-2 [2] (setting [3]) it was < 100 nM.

Turning to `CC(C)CC(N[C@@H](Cc1cncn1Cc1cccc(Cl)c1)C(=O)O)C(=O)O` (single isomer, unassigned) [HC, 2-[1-Carboxy-2-[3-(3-chloro-benzyl)-3H-imidazol-4-yl]-ethylamino)4-methyl-pentanoic acid], the Ki at ACE-2 [1] (12 compound concentrations) was < 100 nM; on Carboxypeptidase A (12 compound concentrations) it was 10 to 50 µM; on ACE (Sigma, A2580) (12 compound concentrations) it was 10 to 50 µM; on ACE-2 [2] (setting [3]), < 100 nM; on ACE-2 [2] (setting [4]), < 50 nM.

With `Cc1ccc(Cn2cncc2C[C@H](NC(CC(C)C)C(=O)O)C(=O)O)cc1` (single isomer, unassigned) [HG, 2-[1-Carboxy-2-[3-(4-methyl-benzyl)-3H-imidazol-4-yl]-ethylamino)4-methyl-pentanoic acid], the Ki was < 100 nM at ACE-2 [1] (12 compound concentrations); 10 to 50 µM at Carboxypeptidase A (12 compound concentrations); 10 to 50 µM at ACE (Sigma, A2580) (12 compound concentrations); < 100 nM at ACE-2 [2] (setting [3]); < 50 nM on ACE-2 [2] (setting [4]).

Regarding `Cc1ccc(Cn2cncc2C[C@H](NC(CC(C)C)C(=O)O)C(=O)O)cc1C` (single isomer, unassigned) [HK, 2-[1-Carboxy-2-[3-(3,4-dimethyl-benzyl)-3H-imidazol-4-yl]-ethylamino)4-methyl-pentanoic acid], the Ki is < 100 nM on ACE-2 [1] (12 compound concentrations); 10 to 50 µM at Carboxypeptidase A (12 compound concentrations); 10 to 50 µM on ACE (Sigma, A2580) (12 compound concentrations); < 100 nM on ACE-2 [2] (setting [3]); < 50 nM on ACE-2 [2] (setting [4]).

On to `Cc1cccc(Cn2cncc2C[C@H](NC(CC(C)C)C(=O)O)C(=O)O)c1` (single isomer, unassigned) [HO, 2-[1-Carboxy-2-[3-(3-methyl-benzyl)-3H-imidazol-4-yl]-ethylamino]4-methyl-pentanoic acid], for which the Ki on ACE-2 [1] (12 compound concentrations) was < 100 nM; on Carboxypeptidase A (12 compound concentrations), 10 to 50 µM; on ACE (Sigma, A2580) (12 compound concentrations), 10 to 50 µM; at ACE-2 [2] (setting [3]), < 100 nM; at ACE-2 [2] (setting [4]), < 50 nM.

In the case of `Cc1cc(C)cc(Cn2cncc2C[C@H](NC(CC(C)C)C(=O)O)C(=O)O)c1` (single isomer, unassigned) [HQ, 2-[1-Carboxy-2-[3-(3,5-dimethyl-benzyl)-3H-imidazol-4-yl]-ethylamino]4-methyl-pantanoic acid], the Ki at ACE-2 [1] (12 compound concentrations) was < 100 nM; at Carboxypeptidase A (12 compound concentrations) it was 10 to 50 µM; on ACE (Sigma, A2580) (12 compound concentrations), 10 to 50 µM; on ACE-2 [2] (setting [3]), < 100 nM; at ACE-2 [2] (setting [4]), < 50 nM.

For `CC(C)CC(N[C@@H](Cc1cncn1Cc1ccc(OC(F)(F)F)cc1)C(=O)O)C(=O)O` (single isomer, unassigned) [HS, 2-[1-Carboxy-2-[3-(4-trifluoromethoxy-benzyl)-3H-imidazol-4-yl]-ethylamino]-4-methyl-pentanoic acid], the Ki is 100 to 500 nM on ACE-2 [1] (12 compound concentrations); 10 to 50 µM at Carboxypeptidase A (12 compound concentrations); 10 to 50 µM on ACE (Sigma, A2580) (12 compound concentrations); < 100 nM on ACE-2 [2] (setting [3]); 50 to 100 nM at ACE-2 [2] (setting [4]).

Take `CC(C)CC(N[C@@H](Cc1cncn1Cc1ccc(C(C)C)cc1)C(=O)O)C(=O)O` (single isomer, unassigned) [HU, 2-[1-Carboxy-2-[3-(4-isopropyl-benzyl)-3H-imidazol-4-yl]-ethylamino)4-methyl-pentanoic acid]: the Ki at ACE-2 [1] (12 compound concentrations) is 100 to 500 nM; on Carboxypeptidase A (12 compound concentrations), < 10 µM; on ACE (Sigma, A2580) (12 compound concentrations) it was < 10 µM; on ACE-2 [2] (setting [3]), < 100 nM; at ACE-2 [2] (setting [4]) it was 50 to 100 nM.

Turning to `CC(C)C[C@@H](C(=O)O)N(C(=O)c1ccccc1)C(CCc1ccccc1)C(=O)O` (stereo in doubt) [AV, 2-[Benzoyl-(1-carboxy-3-phenyl-propyl)-amino]-4-methyl-pentanoic acid], the Ki at ACE-2 [1] (12 concentrations) is > 500 nM; on Carboxypeptidase A (12 concentrations) it was 10 to 50 µM; on ACE (Sigma, A2580) (12 concentrations), > 50 µM; at ACE-2 [2] (setting [5]), > 500 nM.

Take `CCCC(N[C@H](CCc1ccccc1)C(=O)O)C(=O)O` (stereo in doubt) [BA, 2-(1-Carboxy-3-phenyl-propylamino)-pentanoicacid]: the Ki was > 500 nM on ACE-2 [1] (12 concentrations); > 50 µM at Carboxypeptidase A (12 concentrations); > 50 µM at ACE (Sigma, A2580) (12 concentrations); > 500 nM on ACE-2 [2] (setting [5]).

As for `CCC(C)C(N[C@H](Cc1c[nH]cn1)C(=O)O)C(=O)O` (stereo in doubt) [BE, 2-[1-Carboxy-2-(1H-imidazol-4-yl)-ethylamino]-3-methyl-pentanoic acid], the Ki was > 500 nM on ACE-2 [1] (12 concentrations); > 50 µM at Carboxypeptidase A (12 concentrations); 10 to 50 µM on ACE (Sigma, A2580) (12 concentrations); > 500 nM at ACE-2 [2] (setting [5]).

For `CC(C)CC(N[C@H](Cc1ccccn1)C(=O)O)C(=O)O` (stereo in doubt) [BZ, 2-(1-Carboxy-2-pyridin-2-yl-ethylamino)-4-methyl-pentanoic acid], the Ki was > 500 nM at ACE-2 [1] (12 concentrations); > 50 µM on Carboxypeptidase A (12 concentrations); > 50 µM at ACE (Sigma, A2580) (12 concentrations); > 500 nM at ACE-2 [2] (setting [5]).

For the compound `CC(C)CC(N[C@H](Cc1cccs1)C(=O)O)C(=O)O` (stereo in doubt) [CP, 2-(1-Carboxy-2-thiophen-2-yl-ethylamino)-4-methyl-pentanoic acid], the Ki on ACE-2 [1] (12 concentrations) is > 500 nM; at Carboxypeptidase A (12 concentrations), 10 to 50 µM; on ACE (Sigma, A2580) (12 concentrations), > 50 µM; on ACE-2 [2] (setting [5]), > 500 nM.

As for `CC(C)CC(N[C@H](Cc1cn(Cc2ccccc2)cn1)C(=O)O)C(=O)O` (stereo in doubt) [CW, 2-[2-(1-Benzyl-1H-imidazol-4-yl)-1-carboxy-ethylamino]-4-methyl-pentanoic acid], the Ki was > 500 nM on ACE-2 [1] (12 concentrations); > 50 µM at Carboxypeptidase A (12 concentrations); > 50 µM on ACE (Sigma, A2580) (12 concentrations); > 500 nM at ACE-2 [2] (setting [5]).

Turning to `CC(C)CC(N[C@@H](Cc1cn(-c2ccc([N+](=O)[O-])cc2[N+](=O)[O-])cn1)C(=O)O)C(=O)O` (stereo in doubt) [EG, 2-[1-Carboxy-2-[1-(2,4-dinitro-phenyl)-1H-imidazol-4-yl]-ethylamino)4-methyl-pentanoic acid], the Ki at ACE-2 [1] (12 concentrations) was > 500 nM; at Carboxypeptidase A (12 concentrations), > 50 µM; on ACE (Sigma, A2580) (12 concentrations), 10 to 50 µM; at ACE-2 [2] (setting [5]), > 500 nM.

Regarding `CC(C)CC(N[C@H](CN(C)Cc1ccccc1)C(=O)O)C(=O)O` (stereo in doubt) [FU, 2-[2-(Benzyl-methyl-amino)-1-carboxy-ethylamino]-4-methyl-pentanoic acid], the Ki was > 500 nM on ACE-2 [1] (12 concentrations); > 50 µM on Carboxypeptidase A (12 concentrations); > 50 µM on ACE (Sigma, A2580) (12 concentrations); > 500 nM at ACE-2 [2] (setting [5]).

For `CC(C)C[C@H](NC(CN(C)c1ccccc1)C(=O)O)C(=O)O` (stereo partly drawn) [AP, 2-[1-Carboxy-2-(methyl-phenyl-amino)-ethylamino]-4-methyl-pentanoic acid], the Ki on ACE-2 [1] (12 concentrations) is 100 to 500 nM; at Carboxypeptidase A (12 concentrations), 10 to 50 µM; on ACE (Sigma, A2580) (12 concentrations), > 50 µM; at ACE-2 [2] (setting [5]), > 500 nM.
